Measured values as given in publication PMC8776995 (Frontiers in Chemistry, 2022).
Values joined by “and” are separate entries in the source; they are usually repeats but may differ in a detail not shown here. Equal entries are not always repeated.

Key:
wild-type EGFR = wild-type EGFR (Homo sapiens, UniProt P00533); test: EGFR kinase assay (ELISA); settings: for A450: raw ELISA absorbance
H460 cells = test: CCK-8 antiproliferation assay, H460; settings: for Inhibitory efficacy: H460 cells
A549 cells = test: CCK-8 antiproliferation assay, A549; settings: for Inhibitory efficacy: A549 cells
PC-9 cells = test: CCK-8 antiproliferation assay, PC-9; settings: for Inhibitory efficacy: single repeats (Repeat 1-3), given as fraction
Method: The compounds were dissolved in DMSO to make a 20 μM stock solution and diluted to the concentration of working solutions with complete growth medium before administration.
Cells were seeded in 96-well plates: 3,000–5,000 cells/well in 100 ul. One day after seeding, the test compounds at concentration between 1.0 and 16.0 μ M or 0.1% DMSO (as control) were added to cells in triplicate. 48 h later, CCK-8 was added and incubated the plate for 1–4 h in the incubator. The absorbance at 450 nm were measured using a microplate reader (Bio-Tek).

H1975 cells = test: CCK-8 antiproliferation assay, H1975; settings: for Inhibitory efficacy: H1975 cells
[1] = 2uM, given as fraction, Repeat 1-3
[2] = 4uM, given as fraction, Repeat 1-3
[3] = 8uM, given as fraction, Repeat 1-3
[4] = 16uM, given as fraction, Repeat 1-3

Sequence of wild-type EGFR (P00533 25-1210): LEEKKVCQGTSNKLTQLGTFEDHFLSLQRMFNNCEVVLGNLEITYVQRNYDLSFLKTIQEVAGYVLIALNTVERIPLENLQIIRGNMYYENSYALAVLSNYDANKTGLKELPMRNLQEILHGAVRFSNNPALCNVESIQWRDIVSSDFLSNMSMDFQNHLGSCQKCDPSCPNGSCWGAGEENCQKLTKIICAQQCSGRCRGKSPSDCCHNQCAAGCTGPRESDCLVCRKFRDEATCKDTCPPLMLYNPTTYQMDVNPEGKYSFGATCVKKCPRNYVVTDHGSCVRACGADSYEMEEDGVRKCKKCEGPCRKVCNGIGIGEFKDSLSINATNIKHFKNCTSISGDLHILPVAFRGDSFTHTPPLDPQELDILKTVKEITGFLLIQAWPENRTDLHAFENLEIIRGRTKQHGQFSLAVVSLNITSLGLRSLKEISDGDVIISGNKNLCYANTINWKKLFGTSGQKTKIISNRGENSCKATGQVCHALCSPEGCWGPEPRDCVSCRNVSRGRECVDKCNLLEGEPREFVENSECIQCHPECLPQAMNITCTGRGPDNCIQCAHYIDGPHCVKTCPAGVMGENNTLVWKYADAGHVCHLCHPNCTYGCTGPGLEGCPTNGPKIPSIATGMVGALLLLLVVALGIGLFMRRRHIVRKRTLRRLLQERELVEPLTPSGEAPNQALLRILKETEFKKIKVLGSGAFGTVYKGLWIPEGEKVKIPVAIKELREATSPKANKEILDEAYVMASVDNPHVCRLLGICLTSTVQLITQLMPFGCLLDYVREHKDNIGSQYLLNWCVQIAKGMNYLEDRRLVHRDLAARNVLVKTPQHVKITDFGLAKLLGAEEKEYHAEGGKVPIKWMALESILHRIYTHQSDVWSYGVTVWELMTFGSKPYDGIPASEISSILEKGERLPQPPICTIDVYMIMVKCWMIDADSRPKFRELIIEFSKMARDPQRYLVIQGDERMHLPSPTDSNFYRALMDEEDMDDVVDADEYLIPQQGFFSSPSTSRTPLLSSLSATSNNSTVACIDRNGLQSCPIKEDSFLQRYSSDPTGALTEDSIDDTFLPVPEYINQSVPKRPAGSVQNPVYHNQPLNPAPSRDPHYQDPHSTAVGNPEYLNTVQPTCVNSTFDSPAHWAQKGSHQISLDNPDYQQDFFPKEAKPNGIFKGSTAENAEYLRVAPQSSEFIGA

SMILES: COCCOc1cc2ncnc(Nc3cccc(-c4cn(-c5ccccc5OC)nn4)c3)c2cc1OCCOC [e11, [6,7-Bis-(2-methoxy-ethoxy)-quinazolin-4-yl]-{3-[1-(2-methoxy-phenyl)-1H-[1,2,3]triazol-4-yl]-phenyl}-amine]
- melting point: 87 to 90 °C
- IC50 (wild-type EGFR; IC50 (μM) EGFR, ELISA, 3 μmol/L ATP): 49.4 µM
- inhibition at 100 fM (wild-type EGFR; concentration 0.0001 nM (reference for normalisation), one value per replicate column): 0%
- inhibition at 30 pM (wild-type EGFR; concentration 0.03 nM, one value per replicate column): 4.93%
- Inhibition (wild-type EGFR; concentration 0.03 nM, one value per replicate column, 3e-05 µM): 3.3195
- inhibition at 0.0003 µM (wild-type EGFR; concentration 0.3 nM, one value per replicate column): 5.78%
- Inhibition (wild-type EGFR; concentration 0.3 nM, one value per replicate column, 0.0003 µM): 3.734
- inhibition at 0.003 µM (wild-type EGFR; concentration 3 nM, one value per replicate column): 6.42%
- Inhibition (wild-type EGFR; concentration 3 nM, one value per replicate column, 0.003 µM): 4.357
- inhibition at 0.03 µM (wild-type EGFR; concentration 30 nM, one value per replicate column): 7.71%
- Inhibition (wild-type EGFR; concentration 30 nM, one value per replicate column, 0.03 µM): 6.432
- inhibition at 0.3 µM (wild-type EGFR; concentration 300 nM, one value per replicate column): 13.1%
- Inhibition (wild-type EGFR; concentration 300 nM, one value per replicate column, 0.3 µM): 8.091
- inhibition at 3 µM (wild-type EGFR; concentration 3000 nM, one value per replicate column): 13.3%
- Inhibition (wild-type EGFR; concentration 3000 nM, one value per replicate column, 3 µM): 12.4481
- inhibition at 30 µM (wild-type EGFR; concentration 30000 nM, one value per replicate column): 46.9%
- Inhibition (wild-type EGFR; concentration 30000 nM, one value per replicate column, 30 µM): 45.2282
- A450 (wild-type EGFR; concentration 0.0001 nM): 0.614 and 0.641
- A450 (wild-type EGFR; concentration 0.03 nM): 0.591 and 0.625
- A450 (wild-type EGFR; concentration 0.3 nM): 0.587 and 0.623
- A450 (wild-type EGFR; concentration 3 nM): 0.584 and 0.62
- A450 (wild-type EGFR; concentration 30 nM): 0.578 and 0.61
- A450 (wild-type EGFR; concentration 300 nM): 0.553 and 0.602
- A450 (wild-type EGFR; concentration 3000 nM): 0.552 and 0.581
- A450 (wild-type EGFR; concentration 30000 nM): 0.395 and 0.423
- Inhibitory efficacy (H460 cells; [1]): 0.2801 and 0.2884
- Inhibitory efficacy (H460 cells; [2]): 0.5058 and 0.5573
- Inhibitory efficacy (H460 cells; [3]): 0.6543 and 0.6301
- Inhibitory efficacy (H460 cells; [4]): 0.6649 and 0.6664
- IC50 (H460 cells; Homo sapiens, NCI-H460, 48 h, read-out: IC50 (μM) H460, CCK-8, 48 h, average ± SD of three independent experiments): 4.89 ± 0.23 µM
- inhibition at 2 µM (H460 cells; Homo sapiens, NCI-H460, read-out: Inhibitory efficacy, H460 cells, 2uM, given as fraction, Repeat 1-3): 34.4%
- inhibition at 4 µM (H460 cells; Homo sapiens, NCI-H460, read-out: Inhibitory efficacy, H460 cells, 4uM, given as fraction, Repeat 1-3): 48.9%
- inhibition at 8 µM (H460 cells; Homo sapiens, NCI-H460, read-out: Inhibitory efficacy, H460 cells, 8uM, given as fraction, Repeat 1-3): 64.7%
- inhibition at 16 µM (H460 cells; Homo sapiens, NCI-H460, read-out: Inhibitory efficacy, H460 cells, 16uM, given as fraction, Repeat 1-3): 69.5%
- Inhibitory efficacy (A549 cells; [1]): 0.1633 and 0.2142
- Inhibitory efficacy (A549 cells; [2]): 0.2462 and 0.3291
- Inhibitory efficacy (A549 cells; [3]): 0.4514 and 0.4662
- Inhibitory efficacy (A549 cells; [4]): 0.7059 and 0.6624
- IC50 (A549 cells; Homo sapiens, A549, 48 h, read-out: IC50 (μM) A549, CCK-8, 48 h, average ± SD of three independent experiments): 8.4 ± 0.29 µM
- inhibition at 2 µM (A549 cells; Homo sapiens, A549, read-out: Inhibitory efficacy, A549 cells, 2uM, given as fraction, Repeat 1-3): 20.1%
- inhibition at 4 µM (A549 cells; Homo sapiens, A549, read-out: Inhibitory efficacy, A549 cells, 4uM, given as fraction, Repeat 1-3): 25%
- inhibition at 8 µM (A549 cells; Homo sapiens, A549, read-out: Inhibitory efficacy, A549 cells, 8uM, given as fraction, Repeat 1-3): 52.7%
- inhibition at 16 µM (A549 cells; Homo sapiens, A549, read-out: Inhibitory efficacy, A549 cells, 16uM, given as fraction, Repeat 1-3): 68.7%
- IC50 (PC-9 cells; Homo sapiens, PC-9, 48 h, read-out: IC50 (μM) PC-9): 16 ± 1.04 µM
- inhibition at 8 µM (PC-9 cells; Homo sapiens, PC-9, read-out: Inhibitory efficacy, PC-9, 8uM, single repeats (Repeat 1-3), given as fraction): 27.4%
- inhibition at 16 µM (PC-9 cells; Homo sapiens, PC-9, read-out: Inhibitory efficacy, PC-9, 16uM, single repeats (Repeat 1-3), given as fraction): 46.7%
- Inhibitory efficacy (PC-9 cells; PC-9, 8uM, 8 µM): 0.2959 and 0.2658
- Inhibitory efficacy (PC-9 cells; PC-9, 16uM, 16 µM): 0.4848 and 0.4258
- Inhibitory efficacy (H1975 cells; [1]): 0.257 and 0.2168
- Inhibitory efficacy (H1975 cells; [2]): 0.213 and 0.192
- Inhibitory efficacy (H1975 cells; [3]): 0.4311 and 0.3814
- Inhibitory efficacy (H1975 cells; [4]): 0.6071 and 0.5938
- IC50 (H1975 cells; Homo sapiens, NCI-H1975, 48 h, read-out: IC50 (μM) H1975, CCK-8, 48 h, average ± SD of three independent experiments): 10.8 ± 1.57 µM
- inhibition at 2 µM (H1975 cells; Homo sapiens, NCI-H1975, read-out: Inhibitory efficacy, H1975 cells, 2uM, given as fraction, Repeat 1-3): 29.1%
- inhibition at 4 µM (H1975 cells; Homo sapiens, NCI-H1975, read-out: Inhibitory efficacy, H1975 cells, 4uM, given as fraction, Repeat 1-3): 32.2%
- inhibition at 8 µM (H1975 cells; Homo sapiens, NCI-H1975, read-out: Inhibitory efficacy, H1975 cells, 8uM, given as fraction, Repeat 1-3): 49.2%
- inhibition at 16 µM (H1975 cells; Homo sapiens, NCI-H1975, read-out: Inhibitory efficacy, H1975 cells, 16uM, given as fraction, Repeat 1-3): 59.9%
